These are literature values, as cited in patent publication US7576133B2, “Methods and compositions for nasal administration of modafinil” (priority 2002, dated 2009).

In the case of `NC(=O)C[S+]([O-])C(c1ccccc1)c1ccccc1` (racemic) [Modafinil, 2-[(diphenylmethyl)sulfinyl] acetamide], where the note is “lower alcohols”, the “solubility in lower alcohols” value was “slightly soluble”. Moreover, the solubility in water entry (water) is recorded as “practically insoluble”.
